Laboratory results: US5693324A, “Tris(isonitrile) copper(I) sulfates for preparing radionuclide complexes” (The DuPont Merck Pharmaceutical Company, priority 1995, dated 1997)

Assay: water solubility of tris(isonitrile)copper(I) complexes
Assay type: physicochemical

O=S(=O)([O-])[O-].[C-]#[N+]CC(C)(C)OC.[C-]#[N+]CC(C)(C)OC.[C-]#[N+]CC(C)(C)OC.[C-]#[N+]CC(C)(C)OC.[C-]#[N+]CC(C)(C)OC.[C-]#[N+]CC(C)(C)OC.[Cu+].[Cu+] [[Cu(MIBI)3]2 [SO4], tris(1-isocyano-2-methoxy-2-methylpropane)copper(I) sulfate]
water solubility, relative (compared with the tris(isonitrile)copper(I) adducts of U.S. Pat. No. 4,885,100): more soluble
water solubility (sulfate complexes of the present invention, in water): > 100 mg/mL
